Assay results reported in patent EP0987025A1, “Pharmaceitical composition or composition package containing a pyrimidine nucleoside analogue and a purine nucleoside analogue” (priority 1998, dated 2000).
Read-outs that look alike come from different tables or passages of the source.

Legend:
[1] = test system: LP-BM5; assay type: in vivo, C57BL/6 mice; conditions: for Lymphad. (% inh.) / Splenom. (% inh.): about 4 months from infection
Excerpt: LP-BM5 virus was provided by Robert Yetter (Veternas Administration Hospital, Baltimore, MD) and was maintained in a persistently infected SC- 1 cell line as described (Hosier D.E., Yetter R.A., Morse H.C. III, "Functional T lymphocytes are required for a murine retrovirus induced immunodeficiency disease (MAIDS)", J. Exp. Med. 1987; 165:1737-42). C57BL/6 female mice were purchased from Nossan, Milan, Italy and were used at 5 weeks of age. Animals were infected by means of two successive intraperitoneal injections at 24-hr intervals. In the experiments reported three different virus preparations were used.
Mice were housed at 22±1°C with a 12-hr light-dark cycle, 60±5% humidity, and 12 air changes/hr.
(§1) First, the efficacy of 2-fluoro-ara-AMP (F-araAMP, Fludara) in inhibiting murine AIDS (MAIDS), a disease characterized by a lymphoproliferative disorder (lymphadenopathy and splenomegaly), associated with severe immunodeficiency and hypergammaglobulinemia, was evaluated. The disease develops in some strains of mice (C57BL/6) that are infected with a murine leukemia virus mixture termed LP-BM5. In the first preliminary experiments (after about 4 months from infection) LP-BMS infected animals were treated with three different concentrations of F-ara-AMP: 0.065 mg/mouse, 0.325 mg/mouse, 0.650 mg/mouse. The animals of each group were treated intraperitoneally for 3 days a week and for 3 weeks. At the end of the treatment animals were killed and splenomegaly, lymphadenopathy and hypergammaglobulinemia were evaluated.
Infected mice after 7 weeks from infection were treated intraperitoneally with Fludara as follows: • 1. 0.65 mg/mouse once a day for 4 days a week (total dose 7.8 mg/mouse); • 2. 0.65 mg/mouse twice a day for 5 days a week (total dose 19.5 mg/mouse); • 3. […]

[2] = test system: LP-BM5; test: Serum IgG by ELISA (hypergammaglobulinemia) in LP-BM5 infected mice; assay type: in vivo, C57BL/6 mice; conditions: about 4 months from infection
Protocol: Serum IgG levels were determined using an ELISA technique. Briefly, polyvinylchloride microtiter plates (Immulon I; Dynatech Laboratories, Chantilly, VA) were coated with goat anti mouse IgG (Sigma) diluted in 0.135 M sodium chloride for ≥ 24 hr. After four washes with 0.1% tween PBS (TPBS), the plates were blocked with 5% bovin serum albumin (BSA) in PBS for 1 h at 37°C and washed again with TPBS. Serial dilutions of mouse serum were added and after incubation for 1 h at 37°C, the plates were washed four times with TPBS, and 100 µl of horseradish (HRP)-conjugated goat anti-mouse IgG (Bio-Rad, Richmond, CA) was added. After 1 h incubation at 37°C, serum levels were determined using a color development solution containing 2.2 mM O-Phenylenediamine. Absorbance was measured at 492 nm on Model 2550 EIA READER (BIO-RAD). Absolute serum IgG concentrations were obtained using known concentrations of standard mouse IgG.
as §1

[3] = 0.065 mg/mouse i.p. 3 days a week for 3 weeks
[4] = 0.325 mg/mouse i.p. 3 days a week for 3 weeks
[5] = 0.650 mg/mouse i.p. 3 days a week for 3 weeks
[6] = group a: 3.0 mg i.p. once a day for 5 consecutive days, 4 weeks, after 7 weeks of infection
[7] = group b: 3.0 mg i.p. twice a day for 5 consecutive days, 4 weeks, after 7 weeks of infection
[8] = group c: 10 mg in drinking water for 5 consecutive days, 4 weeks, after 7 weeks of infection
[9] = group d: 15 mg in drinking water for 5 consecutive days, 4 weeks, after 7 weeks of infection
[10] = regime 1: 0.65 mg once a day 4 days/week for 3 weeks i.p., after 7 weeks of infection
[11] = regime 2: 0.65 mg twice a day 5 days/week for 4 weeks i.p., after 7 weeks of infection
[12] = regime 3: 3.00 mg once a day 5 days/week for 3 weeks i.p., after 7 weeks of infection
[13] = treatment c: after 6 weeks of infection 3 mg F-ara-AMP i.p. twice a day, 5 consecutive days, 4 weeks, at 10 weeks after infection
[14] = treatment g: after 6 weeks of infection 3 mg F-ara-AMP i.p. twice a day 4 weeks, then interrupted, at 14 weeks after infection

Nc1nc(F)nc2c1ncn2[C@@H]1O[C@H](COP(=O)(O)O)[C@@H](O)[C@@H]1O [F-ara-AMP, Fludarabine phosphate]
Lymphad. (% inh.) [1, 3]: 20±15%
Splenom. (% inh.) [1, 3]: 0%
Lymphad. (% inh.) [1, 4]: 26±9%
Splenom. (% inh.) [1, 4]: 0%
Lymphad. (% inh.) [1, 5]: 49±6%
Splenom. (% inh.) [1, 5]: 0%
Lymph node w. [1, 6]: 0.54 ± 0.32 g
Spleen w. [1, 6]: 0.50 ± 0.25 g
Lymph node w. [1, 7]: 0.05 ± 0.02 g
Spleen w. [1, 7]: 0.22 ± 0.06 g
Lymph node w. [1, 8]: 0.16 ± 0.16 g
Spleen w. [1, 8]: 0.31 ± 0.09 g
Lymph node w. [1, 9]: 0.28 ± 0.23 g
Spleen w. [1, 9]: 0.28 ± 0.13 g
Lymph node w. [1, 10]: 2.63 ± 0.57 g
Spleen weight [1, 10]: 1.01 ± 0.24 g
Lymph node w. [1, 11]: 2.11 ± 0.54 g
Spleen weight [1, 11]: 0.87 ± 0.20 g
Lymph node w. [1, 12]: 1.75 ± 0.53 g
Spleen weight [1, 12]: 0.84 ± 0.17 g
Lymph node w. [1, 13]: 0.042 ± 0.018 g
Spleen w. [1, 13]: 0.130 ± 0.004 g
Lymph node w. [1, 14]: 0.290 ± 0.05 g
Spleen w. [1, 14]: 0.41 ± 0.200 g
Hyperg. (% inh.) [2, 3]: 12±10%
Hyperg. (% inh.) [2, 4]: 16±7%
Hyperg. (% inh.) [2, 5]: 19±4%
